Here are results for two molecules from paper PMC12775434, “Ultra-large virtual screening unveils potent agonists of the neuromodulatory orphan receptor GPR139” (Nature Communications, 2025).

Values joined by “and” are separate entries in the source; they are usually repeats but may differ in a detail not shown here. Equal values may be shown once. Read-outs that look alike come from different tables or passages of the source.

Common to all, as to format: cell-based
For experiment [1], the target named is T1, GPR139 (Homo sapiens, UniProt Q6DWJ6).
T1 sequence (Q6DWJ6 1-353): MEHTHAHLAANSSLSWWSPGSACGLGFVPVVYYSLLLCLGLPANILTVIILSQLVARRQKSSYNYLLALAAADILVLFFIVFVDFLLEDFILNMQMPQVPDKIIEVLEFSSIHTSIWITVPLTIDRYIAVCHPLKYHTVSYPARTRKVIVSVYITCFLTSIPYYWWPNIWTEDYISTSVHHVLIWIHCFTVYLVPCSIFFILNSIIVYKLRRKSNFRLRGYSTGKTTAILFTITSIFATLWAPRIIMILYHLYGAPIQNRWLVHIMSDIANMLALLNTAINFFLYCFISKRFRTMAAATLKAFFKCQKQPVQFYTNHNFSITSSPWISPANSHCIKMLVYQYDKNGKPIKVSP
Put plainly: Ca2+ mobilization assay, antagonist mode (EC80 800 nM Lundbeck Cmp 1a after 20 min preincubation), GPR139-CHOk1. The following applies: individual replicates (Supplementary Figure 4). An outline of the steps:
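Fluo-4-loaded GPR139-CHOk1 cells in HEPES-buffered HBSS (pH 7.4, 2.5 mM probenecid) given test compounds at 10 µM, then after 20 min challenged with 800 nM Lundbeck Cmp 1a (EC80). Calcium fluorescence read at 37 °C, 485/525 nm.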
(In general: Calcium assays in cells follow changes in intracellular calcium, usually with a dye or a luminescent sensor.)

Experiment [2] concerns the target T1, GPR139. The experiment is described as follows: Ca2+ mobilization assay, agonist mode, stable GPR139-CHOk1 cell line. The following applies: for Emax: normalized to Lundbeck Cmp 1a, read-out: Emax (%) Ca2+. In short, it runs like this:
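Agonist activity of compounds is assessed in stably transfected CHO-K1 cells using the calcium dye Fluo-4 at 37 °C in HEPES-buffered HBSS (pH 7.4). Efficacy is expressed relative to the reference agonist Lundbeck Cmp 1a, set as 100%.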

Experiment [3] deals with T2, human muscarinic acetylcholine M1 receptor (M1R) (Homo sapiens, UniProt P11229).
T2 sequence (P11229 1-460): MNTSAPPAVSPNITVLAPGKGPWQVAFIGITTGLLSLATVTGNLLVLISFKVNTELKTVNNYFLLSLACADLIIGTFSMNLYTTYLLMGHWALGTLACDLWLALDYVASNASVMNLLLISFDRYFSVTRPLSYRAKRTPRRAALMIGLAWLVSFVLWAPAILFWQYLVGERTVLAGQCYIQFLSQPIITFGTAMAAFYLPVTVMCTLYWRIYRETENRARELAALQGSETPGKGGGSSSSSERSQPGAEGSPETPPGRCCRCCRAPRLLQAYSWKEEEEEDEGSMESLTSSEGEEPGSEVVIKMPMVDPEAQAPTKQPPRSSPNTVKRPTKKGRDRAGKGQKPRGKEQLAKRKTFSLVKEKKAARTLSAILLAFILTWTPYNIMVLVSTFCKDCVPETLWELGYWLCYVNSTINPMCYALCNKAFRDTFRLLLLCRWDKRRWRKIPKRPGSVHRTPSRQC
The experiment is described as follows: Ca2+ mobilization counter-screen in M1R-CHOk1 cells. As to conditions: individual replicates (Supplementary Figure 5). In short, it runs like this: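 Stable M1R-CHOk1 line; Fluo-4 AM 2 µM, 1 h, 37 °C; HEPES-buffered HBSS pH 7.4 + 1 mM MgCl2/CaCl2 + 2.5 mM probenecid; 10 min equilibration; compound injected post-baseline; ex 485/em 525, 37 °C; DMSO ≤0.3%.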

The mark [4] stands for this setting: Agonist mode, individual replicates (Supplementary Figure 4).
Where [5] appears, read: Supplementary Table 2, mean ± SEM.
Where [6] appears, read: log [Compound] M = -4.5, individual replicate columns.
[7] abbreviates: log [Compound] M = -5.0, individual replicate columns.
[8] abbreviates: log [Compound] M = -5.5, individual replicate columns.
[9] abbreviates: log [Compound] M = -6.0, individual replicate columns.
The mark [10] stands for this setting: log [Compound] M = -6.5, individual replicate columns.
[11] abbreviates: log [Compound] M = -7.0, individual replicate columns.
Where [12] appears, read: log [Compound] M = -7.5, individual replicate columns.
The mark [13] stands for this setting: log [Compound] M = -8.0, individual replicate columns.
The mark [14] stands for this setting: log [Compound] M = -8.5, individual replicate columns.
Setting [15] is: log [Compound] M = -9.0, individual replicate columns.

On to `COc1ccc(-c2nc(CC(=O)NC(C)c3ccccc3)no2)cc1` (stereo not drawn) [Compound 1.18, COC1=CC=C(C2=NC(CC(NC(C3=CC=CC=C3)C)=O)=NO2)C=C1], for which the “Ca2+ signal (% of Cmp 1a)” value at GPR139 [1] was 26 % of Cmp 1a and 19 % of Cmp 1a and 8 % of Cmp 1a; on GPR139 [2] (setting [4]) it was 43 % of Cmp 1a and 66 % of Cmp 1a and 77 % of Cmp 1a; on GPR139 [2] (setting [6]), 87 % of Cmp 1a and 72 % of Cmp 1a and 75 % of Cmp 1a; on GPR139 [2] (setting [7]), 75 % of Cmp 1a and 67 % of Cmp 1a and 70 % of Cmp 1a; at GPR139 [2] (setting [8]), 73 % of Cmp 1a and 53 % of Cmp 1a and 59 % of Cmp 1a; at GPR139 [2] (setting [9]) it was 61 % of Cmp 1a and 23 % of Cmp 1a and 42 % of Cmp 1a. Moreover, the “Ca2+ signal (% of Cmp 1a)” value at GPR139 [2] (setting [10]) was 30 % of Cmp 1a and 3.38 % of Cmp 1a and 24 % of Cmp 1a; at GPR139 [2] (setting [11]), 7 % of Cmp 1a and 9 % of Cmp 1a and 8 % of Cmp 1a; at GPR139 [2] (setting [12]), 6 % of Cmp 1a and 11 % of Cmp 1a and 5.71 % of Cmp 1a; on GPR139 [2] (setting [13]) it was -0.63 % of Cmp 1a and 3 % of Cmp 1a and 8 % of Cmp 1a; on GPR139 [2] (setting [14]) it was 3.39 % of Cmp 1a and 6.59 % of Cmp 1a and 3.49 % of Cmp 1a; at GPR139 [2] (setting [15]) it was 0.103 % of Cmp 1a and 9 % of Cmp 1a and 2.64 % of Cmp 1a. Also, the EC50 at GPR139 [2] (GPR139-CHOk1, read-out: EC50, Ca2+ mobilization) was determined as 1000 nM. On GPR139 [2] (setting [5]), the Emax came out at 72 ± 5%. In addition, the “Ca2+ signal (% of Carbachol)” value in experiment [3] is 2 % of Carbachol and 2.18 % of Carbachol and -0.905 % of Carbachol.
Regarding `Cc1ncc(-c2nc(CC(=O)NC(C)c3ccccc3)no2)o1` (stereo not drawn) [Compound 1.25, CC(C1=CC=CC=C1)NC(CC2=NOC(C3=CN=C(O3)C)=N2)=O], the “Ca2+ signal (% of Cmp 1a)” value on GPR139 [1] is 3 % of Cmp 1a and 15 % of Cmp 1a and 5.33 % of Cmp 1a; on GPR139 [2] (setting [4]), 86 % of Cmp 1a and 76 % of Cmp 1a and 90 % of Cmp 1a; on GPR139 [2] (setting [6]), 107 % of Cmp 1a and 102 % of Cmp 1a and 85 % of Cmp 1a and 96 % of Cmp 1a and 104 % of Cmp 1a; on GPR139 [2] (setting [7]), 92 % of Cmp 1a (2×) and 95 % of Cmp 1a and 77 % of Cmp 1a and 93 % of Cmp 1a; on GPR139 [2] (setting [8]), 62 % of Cmp 1a and 74 % of Cmp 1a and 52 % of Cmp 1a and 93 % of Cmp 1a and 64 % of Cmp 1a; on GPR139 [2] (setting [9]), 43 % of Cmp 1a and 38 % of Cmp 1a and 31 % of Cmp 1a and 47 % of Cmp 1a and 36 % of Cmp 1a. In addition, the “Ca2+ signal (% of Cmp 1a)” value at GPR139 [2] (setting [10]) is 17 % of Cmp 1a and 13 % of Cmp 1a and 4.22 % of Cmp 1a and 19 % of Cmp 1a and 9 % of Cmp 1a; on GPR139 [2] (setting [11]), 7 % of Cmp 1a and 2.6 % of Cmp 1a and -3 % of Cmp 1a and 12 % of Cmp 1a and 3.24 % of Cmp 1a; at GPR139 [2] (setting [12]), 10 % of Cmp 1a and 2.43 % of Cmp 1a and 2 % of Cmp 1a and 1.64 % of Cmp 1a and 4 % of Cmp 1a; at GPR139 [2] (setting [13]), 3 % of Cmp 1a and 6 % of Cmp 1a (2×) and 5 % of Cmp 1a and 4.25 % of Cmp 1a; on GPR139 [2] (setting [14]) it was -0.76 % of Cmp 1a and -1.77 % of Cmp 1a and 0.877 % of Cmp 1a and 5.4 % of Cmp 1a and 0.153 % of Cmp 1a; at GPR139 [2] (setting [15]), 0.813 % of Cmp 1a and 0.273 % of Cmp 1a and -1 % of Cmp 1a and 1 % of Cmp 1a and 2.54 % of Cmp 1a. At GPR139 [2] (Supplementary Table 2, mean ± SEM, read-out: pEC50 Ca2+ (converted)), the EC50 is 2000 nM. Further, on GPR139 [2] (setting [5]), the Emax is 97 ± 3%. Further, the “Ca2+ signal (% of Carbachol)” value in experiment [3] is 5.35 % of Carbachol and 0.226 % of Carbachol and -1.63 % of Carbachol.

As a reminder, the Emax is the size of the effect at its maximum, as opposed to the concentration needed.
